Twelve compounds from ChEMBL document CHEMBL2203230, “Compounds from the heartwood of Caesalpinia sappan and their anti-inflammatory activity” (Bioorg Med Chem Lett, 2012) can be followed below.

SMILES strings stand for the structures.

The test system of the first assay is RAW264.7. The assay is described as follows: Antiinflammatory activity in mouse RAW264.7 cells assessed as inhibition of LPS-induced NO production after 24 hrs by Griess method. The format is functional, cell-based. The conditions noted are these: RAW264.7, 24 h.
As for `COc1cc2c(cc1O)[C@@H]1c3ccc(O)cc3OC[C@]1(O)C2`, the IC50 was > 50 µM.

Take `CO[C@H]1[C@]2(O)COC3=CC(=O)C=C[C@@]31c1cc(O)c(O)cc1C2` [CAESALPINJ]: the IC50 was > 50 µM.

Consider `COc1cc(C[C@@]2(O)COc3cc(O)ccc3[C@@H]2OC)ccc1O` [CAESALPINIAPHENOL F], for which the IC50 was > 50 µM.

For the compound `Oc1ccc2c(c1)OC[C@]1(O)Cc3cc(O)c(O)cc3[C@H]21` [BRAZILIN], the IC50 turned out to be 43.5 µM.

With `Oc1ccc2c(c1)OC[C@@H]1Cc3cc(O)c(O)cc3[C@H]21` [BRAZILANE], the half-maximal inhibitory concentration (IC50) was found to be 36.7 µM.

With `O=C(c1ccc(O)cc1O)[C@@H](O)Cc1ccc(O)cc1`, the IC50 was > 50 µM.

`COc1cc(O)ccc1C(=O)/C=C/c1ccc(O)cc1`: the IC50 is 8.1 µM.

For `COc1cc(C[C@@]23COc4cc(O)ccc4[C@@H]2OC(C)(C)O3)ccc1O`, the IC50 was > 50 µM.

With `Oc1ccc2c(c1)OC[C@]1(O)Cc3c(ccc(O)c3O)[C@H]21` [CAESALPINIAPHENOL E], the half-inhibitory concentration (IC50) was > 50 µM.

Turning to `COc1cc2c(cc1O)C[C@@]1(O)COc3cc(O)ccc3[C@@H]21`, the IC50 is > 50 µM.

On to `COC1(OC)COc2cc(O)ccc2-c2cc(O)c(O)cc2C1` [PROTOSAPPANINADIMETHYLACETAL], for which the IC50 is > 50 µM.

As to `CC1(C)O[C@H]2c3ccc(O)cc3OC[C@@]2(Cc2ccc(O)cc2)O1`, the IC50 is > 50 µM.

The test system of the next assay is RAW264.7. The assay is described as follows: Antiinflammatory activity in mouse RAW264.7 cells assessed as reduction in LPS-induced iNOS expression incubated for 30 mins prior to LPS-challenge measured after 18 hrs. It is filed as functional, cell-based.
Conditions: not given
`COc1cc(O)ccc1C(=O)/C=C/c1ccc(O)cc1`: the Activity entry is “Dose-dependent effect”.
